According to ChEMBL document CHEMBL5375961, “Design, Synthesis, and Biological Evaluation of Trisubstituted Piperazine Derivatives as Noncovalent Severe Acute Respiratory Syndrome Coronavirus 2 Main Protease Inhibitors with Improved Antiviral Activity and Favorable Druggability” (J Med Chem, 2023):
pEC50, pIC50: −log10 of the molar value.

Experiments:
[1] = molecular target: Replicase polyprotein 1ab (Severe acute respiratory syndrome coronavirus 2, UniProt P0DTD1); assay: Inhibition of SARS CoV-2 MPro using MCA-AVLQSGFR-Lys(Dnp)-Lys-NH2 as substrate preincubated for 10 mins followed by substrate addition measured for 10 mins by FRET assay
[2] = (§1) Cytotoxicity in African green monkey Vero E6 cells […] by Neutral red release assay; assay type: toxicity, cell-based, Vero C1008; details: chlorocebus sabaeus, Vero E6 cells
[3] = system: SARS-CoV-2; assay: Antiviral activity against SARS-CoV-2 infected in African green monkey Vero E6 cells assessed as reduction in viral replication preincubated with compound followed by viral infection for 1 hr measured after 25 to 26 hrs by ELISA; assay type: functional, organism-based, Severe acute respiratory syndrome coronavirus 2
[4] = AUC (0 to infinity) in Sprague-Dawley rat at 2 mg/kg, iv measured for 0.033 to 24 hrs by LC-MS/MS analysis; assay type: ADME, organism-based; parameters: time 0.033-24 hrs, dose 2 mg/kg, route iv; details: in vivo
[5] = Oral bioavailability in Sprague-Dawley rat at 10 mg/kg measured for 0.083 to 24 hrs by LC-MS/MS analysis; assay type: ADME, organism-based; details: in vivo, time 0.083-24 hrs
[6] = Half life in Sprague-Dawley rat at 10 mg/kg, po measured for 0.083 to 24 hrs by LC-MS/MS analysis; assay type: ADME, organism-based; details: in vivo, time 0.083-24 hrs
[7] = Cmax in Sprague-Dawley rat at 2 mg/kg, iv measured for 0.033 to 24 hrs by LC-MS/MS analysis; assay type: ADME, organism-based; parameters: time upper 24 hrs, dose 2 mg/kg, time lower 0.033 hrs, route iv; details: in vivo
[8] = AUC (0 to infinity) in Sprague-Dawley rat at 10 mg/kg, po measured for 0.083 to 24 hrs by LC-MS/MS analysis; assay type: ADME, organism-based; parameters: time 0.083-24 hrs, dose 10 mg/kg, route po; details: in vivo
[9] = Clearance in Sprague-Dawley rat at 2 mg/kg, iv measured for 0.033 to 24 hrs by LC-MS/MS analysis; assay type: ADME, organism-based; details: in vivo, time 0.033-24 hrs
[10] = Tmax in Sprague-Dawley rat at 2 mg/kg, iv measured for 0.033 to 24 hrs by LC-MS/MS analysis; assay type: ADME, organism-based; details: in vivo, time 0.033-24 hrs
[11] = Tmax in Sprague-Dawley rat at 10 mg/kg, po measured for 0.083 to 24 hrs by LC-MS/MS analysis; assay type: ADME, organism-based; details: in vivo, time 0.083-24 hrs
[12] = Half life in Sprague-Dawley rat at 2 mg/kg, iv measured for 0.033 to 24 hrs by LC-MS/MS analysis; assay type: ADME, organism-based; details: in vivo, time 0.033-24 hrs
[13] = AUC (0 to t) in Sprague-Dawley rat at 10 mg/kg, po measured for 0.083 to 24 hrs by LC-MS/MS analysis; assay type: ADME, organism-based; parameters: time 0.083-24 hrs, dose 10 mg/kg, route po; details: in vivo
[14] = Volume of distribution in Sprague-Dawley rat at 2 mg/kg, iv measured for 0.033 to 24 hrs by LC-MS/MS analysis; assay type: ADME, organism-based; details: in vivo, time 0.033-24 hrs
[15] = Cmax in Sprague-Dawley rat at 10 mg/kg, po measured for 0.083 to 24 hrs by LC-MS/MS analysis; assay type: ADME, organism-based; parameters: time lower 0.083 hrs, dose 10 mg/kg, time upper 24 hrs, route po; details: in vivo
[16] = AUC (0 to t) in Sprague-Dawley rat at 2 mg/kg, iv measured for 0.033 to 24 hrs by LC-MS/MS analysis; assay type: ADME, organism-based; parameters: time lower 0.033 hrs, dose 2 mg/kg, time upper 24 hrs, route iv; details: in vivo
[17] = system: Vero C1008; assay: as §1; assay type: toxicity, cell-based; details: chlorocebus sabaeus, vero c1008, 600 h; 600 h
[18] = system: SARS-CoV-2; assay: Antiviral activity against SARS-CoV-2 USA_WA1/2020 infected in African green monkey Vero E6 cells expressing hACE2 assessed as reduction in virus-induced cytopathic effect incubated for 3 days in presence of P-gp efflux inhibitor by Cell Titer-Glo assay; assay type: functional, organism-based; details: Severe acute respiratory syndrome coronavirus 2, USA_WA1/2020, Vero C1008, 72 h
[19] = system: SARS-CoV-2; assay: Antiviral activity against SARS CoV-2 Omicron […] infected in African green monkey Vero E6 cells assessed as reduction in viral plaque incubated for 3 days; assay type: functional, organism-based; details: Severe acute respiratory syndrome coronavirus 2, Vero C1008, 72 h
[20] = system: SARS-CoV-2; assay: Antiviral activity against wild-type SARS CoV-2 infected in African green monkey Vero E6 cells assessed as reduction in viral plaque incubated for 3 days; assay type: functional, organism-based; details: Severe acute respiratory syndrome coronavirus 2, Vero C1008, 72 h
[21] = system: SARS-CoV-2; assay: Antiviral activity against SARS CoV-2 Delta infected in African green monkey Vero E6 cells assessed as reduction in viral plaque incubated for 3 days; assay type: functional, organism-based; details: Severe acute respiratory syndrome coronavirus 2, Delta, Vero C1008, 72 h
[22] = system: SARS-CoV-2; assay: Antiviral activity against SARS CoV-2 Alpha infected in African green monkey Vero E6 cells assessed as reduction in viral plaque incubated for 3 days; assay type: functional, organism-based; details: Severe acute respiratory syndrome coronavirus 2, Alpha, Vero C1008, 72 h
[23] = Severe acute respiratory syndrome coronavirus 2, Vero C1008

## O=C(NCc1ccc(Br)s1)[C@@H]1CN(C(=O)c2cccnc2)CCN1c1ccc(Cl)c(Cl)c1
[1]
  pIC50: 5.74

## COc1ccncc1C(=O)N1CCN(c2ccc(Cl)c(Cl)c2)[C@H](C(=O)NCc2ccc(F)s2)C1 [listing 1 of 2 here]
[1]
  pIC50: 6.39
[2]
  CC50 at 600 h: > 100000 nM
[3]; [23]
  pEC50: 5.82

## O=C(NCc1cccs1)[C@@H]1CN(C(=O)c2cc(=O)[nH]c3ccccc23)CCN1c1ccc(Cl)c(Cl)c1
[1]
  pIC50: 6.57
[2]
  CC50 at 600 h: > 100000 nM
[3]; [23]
  pEC50: 5.27

## COc1ccncc1C(=O)N1CCN(c2ccc(Cl)c(Cl)c2)[C@H](C(=O)NCc2cccs2)C1.Cl
[4]
  AUC(0-inf): 431 ng·h/mL
[1]
  pIC50: 6.77
[5]
  bioavailability: 10.5%
[6]
  half-life: 86.4 min
[7]
  Cmax: 1240 ng/mL
[8]
  AUC(0-inf): 226 ng·h/mL
[9]
  clearance: 77.4 mL/min/kg
[10]
  Tmax: 1.8 min
[11]
  Tmax: 30 min
[12]
  half-life: 18.6 min
[13]
  AUC(0-t): 202 ng·h/mL
[14]
  Vd: 2.07 L/kg
[15]
  Cmax: 81.6 ng/mL
[3]; vero e6
  pEC50: 6.28
[16]
  AUC(0-t): 428 ng·h/mL

## COc1ccncc1C(=O)N1CCN(c2ccc(Cl)c(Cl)c2)[C@H](C(=O)NCc2ccc(F)s2)C1 [listing 2 of 2 here]
[1]
  pIC50: 6.46
[17]
  CC50: 100000 nM
[3]; vero e6
  pEC50: 5.85

## CN(Cc1cccs1)C(=O)[C@@H]1CN(C(=O)c2cccnc2)CCN1c1ccc(Cl)c(Cl)c1
[1]
  pIC50: 5.89

## O=C(NCc1cccs1)[C@@H]1CN(C(=O)c2cccnc2)CCN1c1ccc(Cl)c(Cl)c1
[2]
  CC50 at 600 h: 100000 nM
[3]; [23]
  pEC50: 5.89

## COc1ccncc1C(=O)N1CCN(c2ccc(Cl)c(Cl)c2)[C@H](C(=O)NCc2cccs2)C1
[2]
  CC50 at 600 h: > 100000 nM
[3]; [23]
  pEC50: 6.11

## COc1ccncc1C(=O)N1CCN(c2ccc(Cl)c(Cl)c2)[C@H](C(=O)Nc2ccc(OC(F)F)cc2)C1
[1]
  pIC50: 6.32

## O=C(NCc1ccc(F)s1)[C@@H]1CN(C(=O)c2cccnc2)CCN1c1ccc(Cl)c(Cl)c1
[1]
  pIC50: 6.40
[2]
  CC50 at 600 h: 79000 nM
[3]; [23]
  pEC50: 5.82

## O=C(NCc1cccs1)[C@@H]1CN(C(=O)c2cncc3cc[nH]c23)CCN1c1ccc(Cl)c(Cl)c1 [listing 1 of 2 here]
[1]
  pIC50: 6.60
[2]
  CC50 at 600 h: 36000 nM
[3]; [23]
  pEC50: 6.27

## O=C(NCc1cccs1)[C@@H]1CN(C(=O)c2cncc(O)c2)CCN1c1ccc(Cl)c(Cl)c1
[1]
  pIC50: 6.36
[3]; [23]
  pEC50: 4.82

## O=C(NS(=O)(=O)c1cccs1)[C@@H]1CN(C(=O)c2cccnc2)CCN1c1ccc(Cl)c(Cl)c1
[1]
  pIC50: 5.02

## O=C(NCc1cccs1)[C@@H]1CN(C(=O)c2cnccc2Cl)CCN1c1ccc(Cl)c(Cl)c1
[1]
  pIC50: 6.49
[2]
  CC50 at 600 h: > 100000 nM
[3]; [23]
  pEC50: 5.51

## COc1ccncc1C(=O)N1CCN(c2ccc(Cl)c(Cl)c2)[C@H](C(=O)Nc2cc(F)c(OC)c(F)c2)C1
[1]
  pIC50: 6.37
[3]; [23]
  pEC50: 5.51

## COc1ccc(NC(=O)[C@@H]2CN(C(=O)c3cccnc3)CCN2c2ccc(Cl)c(Cl)c2)cc1
[1]
  pIC50: 6.70
[2]
  CC50 at 600 h: 95000 nM
[3]; [23]
  pEC50: 6.13

## COc1cccc2[nH]c(C(=O)N[C@@H](CC(C)C)C(=O)N[C@H](C[C@@H]3CCNC3=O)C(=O)CO)cc12
[18]
  pEC50: 6.66

## CC(C)(C)[C@H](NC(=O)C(F)(F)F)C(=O)N1C[C@H]2[C@@H]([C@H]1C(=O)N[C@H](C#N)C[C@@H]1CCNC1=O)C2(C)C
[2]
  CC50 at 600 h: > 100000 nM

## O=C(NCc1cccs1)[C@@H]1CN(C(=O)c2cncc3cc[nH]c23)CCN1c1ccc(Cl)c(Cl)c1 [listing 2 of 2 here]
[19]
  pEC50: 7.10
[1]
  pIC50: 6.68
[17]
  CC50: 42000 nM
[20]
  pEC50: 6.62
[21]
  pEC50: 6.66
[22]
  pEC50: 6.89
[3]; vero e6
  pEC50: 6.28

## COc1cc(OC)c(NC(=O)[C@@H]2CN(C(=O)c3cnccc3OC)CCN2c2ccc(Cl)c(Cl)c2)cc1F
[1]
  pIC50: 6.40
[2]
  CC50 at 600 h: 79000 nM
[3]; [23]
  pEC50: 5.82

## O=C(NCc1cccs1)[C@@H]1CN(C(=O)c2cncc(F)c2)CCN1c1ccc(Cl)c(Cl)c1
[1]
  pIC50: 6.46
[2]
  CC50 at 600 h: > 100000 nM
[3]; [23]
  pEC50: 5.82
